Where two headings read alike, the source gives them in different places.
Legend:
[1] = In vitro skin permeation study, vertical static Franz-type diffusion cells, 24 h; type: in vitro ADME, human; settings: for average amount permeated across dermatomed human skin: liquid base form; for flux / flux with 10% lauric acid versus propylene glycol alone: base 20 mg/mL; for calculated passive flux over 24 hours: base form, 40 mg/ml; for percent permeated through the skin within 24 hours: base; for flux enhancement compared to propylene glycol only group: base 40 mg/mL
Method: To test this prediction, skin permeation studies were conducted with 4-benzylpiperidine, phenmetrazine, and PAL-353 (3-flouroamphetamine) Based on the required dosing and technical capacity of patch technology, one objective was to develop a 24-hour patch. As such, the skin permeation studies were performed for 24 hours using vertical static Franz-type diffusion cells.
The recirculating water bath system was maintained at 37° C. to bring the skin surface temperature to 32° C. Each Franz cell comprised of a donor compartment containing the drug and a receiver compartment containing 1×PBS at pH 7.4 to ensure a diffusion gradient, with human dermatomed skin (described below) clamped between the two compartments. Permeation was followed by detection of drug in the receiver compartment using an alliance HPLC Waters 2695 Separations Module attached to a Waters UV detector system. A prodigy 5 u ODS (2) 150×4.60 mm 5 micron column with mobile phase of acetonitrile and water (0.05% TFA) at a flow rate of 1 mL/min and an injection volume 20 μL, with a retention time of 5.5 min, was detected at 259 nm wavelength. The same permeation and HPLC protocol was followed with 6 Franz cells (n=6) for each condition.
PAL-353 (3-flouroamphetamine) (10 mg/mL in a vehicle suitable for the enhancement technique being used) was placed in the donor compartment of the Franz cell.
The permeation of phenmetrazine and PAL-353 (3-flouroamphetamine) (3-FA) through dermatomed human cadaver skin was further studied using static Franz diffusion cells. Permeated drugs were quantified using a validated HPLC-UV method. The passive permeation of phenmetrazine and 3-FA was evaluated at the concentrations of 10 (phenmetrazine fumarate), 20 (phenmetrazine and 3-FA bases) and 40 (phenmetrazine and 3-FA bases) mg/mL in propylene glycol (PG). Further, the enhancement effect of oleic acid (5% w/w), oleyl alcohol (5% and 10% w/w) and lauric acid (10% w/w) on the permeation of phenmetrazine and 3-FA bases at 20 and 40 mg/mL was investigated.
Chemical permeation enhancers belonging to fatty acid or fatty alcohol group, oleic acid, oleyl alcohol and lauric acid were incorporated to improve the permeation rate of phenmetrazine (40 mg/mL) and 3-flouroamphetamine (20 mg/mL).
Iontophoretic delivery of PAL-353 across dermatomed human skin was also investigated. The donor chamber was filled with 500 μL of PAL-353 solution (10 mg/ml; 54% of saturation solubility) in 10 mM PBS, pH 7.4 containing 25 mM sodium chloride (n=4). The pH of the donor formulation as measured using glass electrode was around 4.0. Anodal iontophoresis was conducted where silver (anode) and silver chloride electrodes (cathode) were placed in the donor chamber and sampling port of the receptor chamber, respectively. It was ensured that there was no contact between the anode and skin in order to avoid skin damage due to high local voltage. The electrodes were then coupled in series to a source of constant current supply (Keithley 2400 Source Meter®, Keithley Instruments Inc., Cleveland, Ohio, USA). A current density of 0.5 mA/cm^2 was applied for 4 h. However, the total duration of the permeation study was 24 h and sampling was done at 0 h, 1 h, 2 h, 3 h, 4 h, 5 h, 6 h, 8 h, 22 h and 24 h.
This study was repeated keeping all the parameters same except that no current was applied (n=4). This group served as the passive control for comparison of the iontophoretic delivery of PAL-353 across human skin. Also, in a separate study, for these two groups, after 4 h, the formulations were removed and current was stopped in the iontophoresis group. Skin resistance was then measured using the procedure explained in section 2.2.3. Results have been presented as mean±SE.
Lag time was calculated as the x-intercept of the extrapolated linear portion of the permeation profiles (cumulative drug permeated/cm^2 plotted against the time). […]

SERT = SERT (Rattus norvegicus, UniProt P31652); assay: Release activity of phenethylamine analogs, SERT; type: biochemical
Sequence of SERT (P31652 whole entry): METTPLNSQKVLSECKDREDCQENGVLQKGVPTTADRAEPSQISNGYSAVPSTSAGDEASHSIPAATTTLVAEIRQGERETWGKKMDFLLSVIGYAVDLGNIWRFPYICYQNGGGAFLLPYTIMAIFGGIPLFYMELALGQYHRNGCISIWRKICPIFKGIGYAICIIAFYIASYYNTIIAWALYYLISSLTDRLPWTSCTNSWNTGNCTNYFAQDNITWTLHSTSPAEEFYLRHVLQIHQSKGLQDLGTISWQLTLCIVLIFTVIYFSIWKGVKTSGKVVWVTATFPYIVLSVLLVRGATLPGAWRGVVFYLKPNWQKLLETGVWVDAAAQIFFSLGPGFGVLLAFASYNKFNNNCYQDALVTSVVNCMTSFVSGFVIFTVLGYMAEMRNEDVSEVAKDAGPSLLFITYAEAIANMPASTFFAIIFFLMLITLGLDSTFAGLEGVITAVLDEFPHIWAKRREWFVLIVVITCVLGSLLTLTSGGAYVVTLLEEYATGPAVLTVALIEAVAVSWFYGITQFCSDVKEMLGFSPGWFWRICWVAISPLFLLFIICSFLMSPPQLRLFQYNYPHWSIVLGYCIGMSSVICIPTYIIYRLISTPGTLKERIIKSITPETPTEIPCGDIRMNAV

NET = assay: Release activity of phenethylamine analogs, NET; type: biochemical; settings: ratio of EC50 values
DAT [2] = assay: Release activity of phenethylamine analogs, DAT; type: biochemical; settings: ratio of EC50 values
DAT [3] = target: DAT (Rattus norvegicus, UniProt P23977); assay: Release activity of phenethylamine analogs, DAT; type: biochemical
Sequence of DAT (Rattus norvegicus, UniProt P23977) (P23977 whole entry): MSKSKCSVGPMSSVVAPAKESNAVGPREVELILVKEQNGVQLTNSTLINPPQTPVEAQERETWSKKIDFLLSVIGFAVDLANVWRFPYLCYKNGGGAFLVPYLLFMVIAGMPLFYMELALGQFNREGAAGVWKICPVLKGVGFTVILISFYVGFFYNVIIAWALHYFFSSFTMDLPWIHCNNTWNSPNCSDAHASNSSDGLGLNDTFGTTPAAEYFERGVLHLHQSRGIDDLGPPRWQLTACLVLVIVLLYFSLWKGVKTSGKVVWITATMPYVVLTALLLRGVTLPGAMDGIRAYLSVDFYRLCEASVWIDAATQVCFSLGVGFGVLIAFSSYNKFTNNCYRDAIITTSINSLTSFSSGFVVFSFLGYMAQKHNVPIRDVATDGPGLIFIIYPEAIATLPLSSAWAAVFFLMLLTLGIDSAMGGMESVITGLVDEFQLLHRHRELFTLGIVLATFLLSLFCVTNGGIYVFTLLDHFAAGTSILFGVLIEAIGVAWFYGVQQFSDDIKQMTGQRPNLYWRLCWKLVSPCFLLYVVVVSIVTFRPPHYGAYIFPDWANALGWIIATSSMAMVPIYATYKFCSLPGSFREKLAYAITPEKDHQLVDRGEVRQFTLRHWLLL

EPIDERM = assay: Skin irritation potential of formulations, EPIDERM 3 dimensional model; settings: two formulations reaching therapeutic flux
Method: The skin irritation potential of our formulations were tested using EPIDERM™, which is a 3 dimensional model used to assess skin irritation.

[4] = www.chemspider.com; cited from earlier work
[5] = 100 mg of 2% HPC gel containing 10 mg of drug, 24 h

For c1ccc(CC2CCNCC2)cc1 [4-benzylpiperidine, 4-Benzylpiperidine], the “average amount permeated across human dermatomed skin” value [1, 5] was 1824±425 μg/cm^2, the “share of drug permeated across human dermatomed skin” value [1, 5] was “about 18%” and the “average amount permeated across dermatomed human skin” value ([1]; 100 μL of 1 mg/ml in PG, passive, 24 h) was 33±8 μg/cm^2. The “average amount permeated across dermatomed human skin” value ([1]; 100 μL of 10 mg/ml in PG, passive, 24 h) was 288±71 μg/cm^2.
With CC(N)Cc1ccc(Cl)cc1 (centres unmarked) [PAL-24] the EC50 (SERT) was 21.5 nM, the SERT/NET (NET) was 0.9 and the SERT/DA (DAT [2]) was 0.3.
Molecule COc1cccc(CC(C)N)c1 (centres unmarked) [PAL-161] has an EC50 (SERT) of 328 nM, an SERT/NET (NET) of 5.7 and an SERT/DA (DAT [2]) of 3.2.
Work on COc1ccc(CC(C)N)cc1 (centres unmarked) [PAL-162] yielded an EC50 (SERT) of 63.3 nM, an SERT/NET (NET) of 0.4 and an SERT/DA (DAT [2]) of 0.1.
Molecule CC(N)Cc1ccc(F)cc1 (centres unmarked) [PAL-303] has an EC50 (SERT) of 939 nM, an SERT/NET (NET) of 33.5 and an SERT/DA (DAT [2]) of 18.2.
With CC(N)Cc1cccc(Cl)c1 (centres unmarked) [PAL-304] the EC50 (SERT; read-out: EC50 SERT release) was 120 nM, the SERT/NET (NET) was 12.8 and the EC50 (DAT [3]) was 11.8 nM. The SERT/DA (DAT [2]) was 10.2.
CC(N)Cc1ccccc1C(F)(F)F (centres unmarked) [PAL-307] showed an EC50 (SERT) greater than 10000 nM.
With CC(N)Cc1ccc(OC(F)(F)F)cc1 (centres unmarked) [PAL-309] the EC50 (SERT) was 82.2 nM, the SERT/NET (NET) was 0.2 and the SERT/DA (DAT [2]) was 0.0.
Cc1ccc(CC(C)N)cc1 (centres unmarked) [PAL-313] showed an EC50 (SERT) of 53.4 nM, an SERT/NET (NET) of 2.4 and an SERT/DA (DAT [2]) of 1.2.
Molecule Cc1cccc(CC(C)N)c1 (centres unmarked) [PAL-314] has an EC50 (SERT) of 218 nM, an SERT/NET (NET) of 11.9 and an SERT/DA (DAT [2]) of 6.5.
In the case of Cc1ccccc1CC(C)N (centres unmarked) [PAL-315], the EC50 (SERT) is reported as 973 nM, the SERT/NET (NET) is reported as 26.3 and the SERT/DA (DAT [2]) is reported as 7.7.
In the case of CC(N)Cc1ccc(C(C)C)cc1 (centres unmarked) [PAL-334], the EC50 (SERT) is reported as 79.2 nM.
Molecule CCc1ccc(CC(C)N)cc1 (centres unmarked) [PAL-335] has an EC50 (SERT) of 36.1 nM, an SERT/NET (NET) of 0.3 and an SERT/DA (DAT [2]) of 0.1.
For CC(N)Cc1cccc(F)c1 (centres unmarked) [PAL-353, 3-fluoroamphetamine], the EC50 (SERT) was 1940 nM, the “predicted skin irritation of formulations reaching therapeutic flux” value (EPIDERM) was “irritant” and the SERT/NET (NET) was 120. For the same molecule, the SERT/DA (DAT [2]) was 80, the “passive permeation over 24 h” value ([1]; 10 mg/ml in 10 mM PBS, no current) was 3.94±0.53 μg/cm^2 and the “flux enhancement compared to PG alone” value ([1]; 20 mg/mL, 5% w/w oleic acid, not significant) was roughly 40%. For the same molecule, the “flux as percent of the control group” value ([1]; 20 mg/mL, 5% w/w oleyl alcohol in PG) was 389%, the “flux as percent of the control group” value ([1]; 20 mg/mL, 10% w/w oleyl alcohol in PG) was 370% and the “increase of cumulative drug permeation by iontophoresis versus passive” value ([1]; PBS, 24 h period) was 548 fold. The “enhancement of skin permeation by ablative laser versus passive” value ([1]; PG, 24 h) was 508 times, the lag time ([1]; anodal iontophoresis, x-intercept of linear portion of permeation profile) was “around 3.5 h” and the flux ([1]; 5% oleic acid in PG) was 109.8±17.94 μg/cm^2/h. The flux ([1]; 10% oleyl alcohol in PG) was 292.0±31.70 μg/cm^2/h, the “flux with 10% lauric acid versus propylene glycol alone” value ([1]; 10% w/w lauric acid in PG, listed as 3-FA base) was “did not show significant difference” and the “flux with 10% lauric acid versus propylene glycol alone” value ([1]; 10% w/w lauric acid in PG, listed as 3-flouroamphetamine) was “did not impact the flux at all”. For the same molecule, the “calculated passive flux over 24 hours” value ([1]; passive) was 3784.62±173.52 μg/cm^2, the “percent permeated through the skin within 24 hours” value ([1]; 20 mg/mL in PG, passive) was 41.4±1.18% and the “percent permeated through the skin within 24 hours” value ([1]; 40 mg/mL in PG, passive) was 74.45±3.43%. The “enhancement by maltose microneedles versus control” value ([1]; hydrochloride in PG, 24 h) was 7 fold, the “permeation after 24 h, skin pre-treated with maltose microneedles” value ([1]; hydrochloride, solution in PG) was 7.35±4.87 μg/cm^2 and the “passive permeation after 24 h” value ([1]; hydrochloride, solution in propylene glycol (control)) was 1.03±0.17 μg/cm^2. For the same molecule, the “passive permeation in PBS compared to PG” value ([1]; passive) was “approximately four”, the “permeation over 24 hours with anodal iontophoresis” value ([1]; salt form (hydrochloride), 10 mg/ml in PBS, 0.5 mA/cm^2 for 4 h, 24 h) was 2159.43±301.14 μg/cm^2 and the “permeation after skin microporation by ablative laser” value ([1]; solution in PG, P.L.E.A.S.E. laser, 24 h) was 523.24±86.79 μg/cm^2.
CC(N)Cc1cccc(C(F)(F)F)c1 (centres unmarked) [PAL-677] gave an EC50 (SERT) of 104 nM, an SERT/NET (NET) of 0.6 and an SERT/DA (DAT [2]) of 0.1.
CCc1cccc(CC(C)N)c1 (centres unmarked) [PAL-1386] gave an EC50 (SERT) of 160 nM, an SERT/NET (NET) of 1.4 and an SERT/DA (DAT [2]) of 1.3.
For C[C@H]1[C@H](c2ccccc2)OCCN1C [phendimetrazine], the “log P” value [4] is given as 2.17.
With CC1NCCOC1c1ccccc1 (centres unmarked) [phenmetrazine, Phenmetrazine, reference compound] the “predicted skin irritation of formulations reaching therapeutic flux” value (EPIDERM) was “irritant”, the “flux increase compared to group without enhancer” value ([1]; 40 mg/mL, 5% w/w oleyl alcohol in PG) was roughly 10 folds and the “efficiency of oleyl alcohol as permeation enhancer over oleic acid” value ([1]; 40 mg/mL, both enhancers at 5% w/w) was 53.4%. For the same molecule, the “flux enhancement by oleyl alcohol compared to lauric acid” value ([1]; 40 mg/mL, irrespective of oleyl alcohol concentration) was roughly 240%, the “flux enhancement compared to propylene glycol only group” value ([1]; 5% w/w oleic acid in PG) was 7.6 fold and the “flux enhancement compared to propylene glycol only group” value ([1]; 10% w/w lauric acid in PG) was 3.4 fold. For the same molecule, the “flux enhancement compared to propylene glycol only group” value ([1]; 10% w/w oleyl alcohol in PG) was roughly 10 fold, the “flux enhancement compared to propylene glycol only group” value ([1]; 10% w/w oleyl alcohol in PG, listed as phenmetrazine base) was 11.4 fold and the “calculated passive flux over 24 hours” value ([1]; passive) was 359.05±82.36 μg/cm^2. For the same molecule, the “percent permeated through the skin within 24 hours” value ([1]; 20 mg/mL in PG, passive) was 1.86±0.41% and the “percent permeated through the skin within 24 hours” value ([1]; 40 mg/mL in PG, passive) was 5.74±1.32%.
For “Phenmetrazine fumarate [reference compound]”, the “passive permeation over 24 hours” value ([1]; 10 mg/mL in propylene glycol) was “no permeation”.

— patent US20190298661A1, “Transdermal Delivery of Phenethylamine Monoamine Releasers” (priority 2016, published 2019)
